In patent US6395913B1, “Recovery and purification of 3,4-epoxy-1-butene” (Eastman Chemical Company, priority 2001, dated 2002):

Assays:
Assay type in all cases: physicochemical
[1] = Extraction affinity of water-immiscible solvents: distribution coefficients against a standard water/3-buten-1,2-diol/epoxybutene solution; conditions: room temperature; for Distribution Coefficients Epoxy-Butene: 1 part solvent : 1 part standard solution (35% water/65% diol with approx. 10 wt% epoxybutene), GC analysis, ONE PHASE = no phase separation; for Distribution Coefficients Solvent / Distribution Coefficients Water / Distribution Coefficients Diol: 1 part solvent : 1 part standard water-diol-epoxybutene solution; for Distribution Coefficients Diol: diol = 3-buten-1,2-diol
Description: This example compares the extraction affinity of various water-immiscible solvents for epoxybutene in the presence of aqueous absorbent mixtures, as occurs in the extraction zone of both embodiments of this invention. A standard mixture of 35% water and 65% 3-buten-1,2-diol (diol) was prepared. […] For each candidate extractant solvent specified in Table 1, one part by weight water-immiscible solvent was added to one part standard water-diol-epoxybutene solution in a separatory funnel. The mixture was vigorously shaken, allowed to settle, then separated into two liquid phases at room temperature. The aqueous and organic layers from the decantation were analyzed by gas chromatography to determine the composition of each layer. From these compositions, distribution coefficients were calculated for epoxybutene, water, diol, and the candidate extractant as follows: [formula]

[2] = Rate of epoxybutene hydrolysis as a function of pH
Source text: Epoxybutene reacts readily with nucleophiles such as water and alcohols to form 3-butene-1,2-diol and glycol ethers, respectively. However, the relative rate of epoxybutene reaction with nucleophiles is a function of pH. Epoxybutene, like other epoxides, undergoes both acid and base catalysis. Acid catalysis has the larger influence on the rate of reaction. For example, the rate of epoxybutene hydrolysis is over 500 times greater at pH 3 than at pH 7. At pH 11, the rate is over 17 times greater than at pH 7. Since it is desirable to minimize epoxybutene losses due to reaction with nucleophiles, EpB reactivity can be reduced by maintaining the epoxybutene-laden solution at or near a pH of about 7 to 8. This can be done by adding a basic compound to the recovery system. Generally the process gas from the reactor contains ppm levels of formic acid and other organic acids. Thus, any basic material which is capable of neutralizing organic acids may be used in the present process. […]

[3] = Epoxybutene loss by reaction (hydrolysis) during continuous distillation; conditions: for epoxybutene present in the feed reacted to form 1,2-diol and higher diol oligomers: about 1 bar
Description: The distillation was conducted in a silvered, vacuum-jacketed glass Oldershaw column, equipped with a liquid-dividing distillation head, feed tray, reflux magnet, reflux timer, cooling water condenser, jacketed reboiler, pressure gage, and nitrogen purge line. The column was configured with a 15-plate stripping section, a 10-plate rectifying section, and a 500 ml jacketed flask heated by a thermostatted circulating oil bath. Feed to the column was supplied from a 5-liter jacketed vessel via a piston pump and bottoms take-off was removed via a second piston pump. The bottoms product was cooled in a small water-chilled stainless steel heat exchanger placed in line on the suction side of the pump. The distillate product flowed by gravity to a jacketed cooled receiver, which also functioned as a phase decanter. Thermocouples were provided at the reboiler, and distillation head. The continuous run lasted about 12 hours in duration with a total feed of about 1192 grams. A reflux ratio of 1:1 was employed. The column was operated at about 1 bar absolute pressure. During steady state operation the average distillate composition comprised about 16% water, 84% epoxybutene, and less than 0.01% 1,2-diol. The distillate separated into two liquid phases upon settling. The average bottoms product comprised 59.2% water, less than 0.2% epoxybutene, and 39.9% 1,2-diol. Approximately 66% of the epoxybutene present in the feed reacted to form 1,2-diol and higher diol oligomers and 93% of the unreacted epoxybutene was recovered in the distillate.
The distillation was conducted in a silvered, vacuum-jacketed glass Oldershaw column, equipped with a liquid-dividing distillation head, feed tray, reflux magnet, reflux timer, cooling water condenser, jacketed reboiler, pressure gage, and nitrogen purge line. The column was configured with a 15-plate stripping section, a 10-plate rectifying section, and a 500 ml jacketed flask heated by a thermostatted circulating oil bath. Feed to the column was supplied from a 5-liter jacketed vessel via a piston pump and bottoms take-off was removed via a second piston pump. The product removed from the base of the column was cooled in a small water-chilled stainless steel heat exchanger placed in line on the suction side of the pump. The distillate product flowed by gravity to a jacketed cooled receiver, which also functioned as a phase decanter. Thermocouples were provided at the reboiler, and distillation head. The continuous run lasted about 10 hours in duration with a total feed of about 3028 grams. A reflux ratio of 3:1 was employed. The column was operated at about 1 bar absolute pressure. During steady state operation the average distillate composition comprised about 20.4% water, 79.4% epoxybutene, and less than 0.2% 1,2-diol. […]

Compound | Distribution Coefficients Epoxy-Butene [1] | Distribution Coefficients Solvent [1] | Distribution Coefficients Water [1] | Distribution Coefficients Diol [1] | further results
c1ccc2c(c1)CCCC2 [1,2,3,4-Tetrahydronaphthalene] | 1.91 | 51.8 | 0.010 | 0.021 | –
Clc1ccccc1Cl [1,2-Dichlorobenzene] | 3.91 | 54.4 | 0.002 | 0.007 | –
CC(C)c1cccc(C(C)C)c1 [1,3-Diisopropylbenzene] | 1.92 | 329 | 0.001 | 0.004 | –
Cc1cccc2ccccc12 [1-Methylnaphthalene] | 3.10 | 101 | 0.002 | 0.006 | –
CC(C)C(=O)OCC(C)(C)C(OC(=O)C(C)C)C(C)C (stereo not drawn) [2,2,4-Trimethyl-1,3-Pentanediol Diisobutyrate] | 2.19 | 124 | 0.012 | 0.027 | –
CCCCC(CC)CO (stereo not drawn) [2-Ethylhexanol] | ONE PHASE | – | – | – | –
COCC(C)OC(C)=O (stereo not drawn) [2-Methoxy-1-Methylethyl Acetate] | ONE PHASE | – | – | – | –
CCCC(C)=O [2-Pentanone] | ONE PHASE | – | – | – | –
CCC(O)CC [3-Pentanol] | ONE PHASE | – | – | – | –
CCC(=O)CC [3-Pentanone] | ONE PHASE | – | – | – | –
CCCCOC(=O)CC [Butyl Propionate] | 3.96 | 14.1 | 0.042 | 0.115 | –
ClC(Cl)Cl [Chloroform] | 8.73 | 8.33 | 0.024 | 0.106 | –
C1CCCCC1 [Cyclohexane] | 2.09 | 215 | 0.001 | 0.000 | –
O=C1CCCCC1 [Cyclohexanone] | ONE PHASE | – | – | – | –
C[S+](C)[O-] [Dimethylsulfoxide] | ONE PHASE | – | – | – | –
CC(C)COC(=O)C(C)C [Isobutyl isobutyrate] | 3.49 | 34.4 | 0.022 | 0.065 | –
CC(=O)OCCC(C)C [Isopentyl Acetate] | 2.80 | 25.6 | 0.073 | 0.181 | –
CC1=CC(=O)CC(C)(C)C1 [Isophorone] | ONE PHASE | – | – | – | –
C=C(C)[C@H]1CC=C(C)CC1 [Limonene] | 2.28 | 352 | 0.001 | 0.003 | –
COC(=O)c1ccccc1 [Methyl Benzoate] | 2.84 | 6.66 | 0.076 | 0.155 | –
CC(=O)CC(C)C [Methyl Isobutyl Ketone] | ONE PHASE | – | – | – | –
COC(C)(C)C [Methyl t-Butyl Ether] | ONE PHASE | – | – | – | –
CC1COC(=O)O1 (stereo not drawn) [Propylene Carbonate] | ONE PHASE | – | – | – | –
C=CC1CO1 (stereo not drawn) [epoxybutene, 3,4-epoxy-1-butene] | – | – | – | – | rate of epoxybutene hydrolysis relative to pH 7 ([2]; pH 3 versus pH 7): over 500 times; rate of epoxybutene hydrolysis relative to pH 7 ([2]; pH 11 versus pH 7): over 17 times; epoxybutene present in the feed reacted to form 1,2-diol and higher diol oligomers ([3]; Comparative Example 1: distillation from 45.4% water, 9.1% epoxybutene, 45.5% 1,2-diol): Approximately 66%; epoxybutene present in the feed reacted to form 1,2-diol and higher diol oligomers ([3]; Example 6: distillation from p-xylene extract): Less than 0.5%; epoxybutene present in the feed reacted to form 1,2-diol and higher diol oligomers ([3]; Example 7: distillation from isobutyl isobutyrate extract): Less than 0.4%; percent epoxybutene loss ([3]; Example 11: distillation of water-rich layer (96.92% water, 3.0% epoxybutene), feed pH 8 with K2CO3-H3PO4 buffer, 740 Torr): 1.5%
Cc1cccc(C)c1 [m-Xylene] | 2.32 | 1479 | 0.002 | 0.005 | –
CCCCCCCCCC [n-Decane] | 1.06 | 1907 | 0.000 | 0.001 | –
CCCCCCC [n-Heptane] | 1.93 | 851 | 0.001 | 0.001 | –
Cc1ccc(C)cc1 [p-Xylene] | 4.34 | 368 | 0.002 | 0.005 | –
